Results taken from patent US10035805B2, “Tricyclic triazolic compounds” (LABORATORIOS DEL DR. ESTEVE S.A., priority 2014, dated 2018).
Structures can show the parent of a compound that is named as a salt.

target: T1, sigma-1 receptor (Cavia porcellus, UniProt Q60492); assay: Sigma-1 receptor radioligand binding assay with [3H]-(+)-pentazocine in guinea pig brain membranes; settings: radioligand [3H]-(+)-pentazocine at 5.0 nM, 150 min at 37° C., nonspecific binding with 1 μM haloperidol
T1 construct: Guinea pig brains were homogenized in 10 vols; (w/v) of Tris-HCl 50 mM 0.32 M sucrose; from tissue; host or cells: guinea pig brain membranes
T1 sequence (Q60492 whole entry): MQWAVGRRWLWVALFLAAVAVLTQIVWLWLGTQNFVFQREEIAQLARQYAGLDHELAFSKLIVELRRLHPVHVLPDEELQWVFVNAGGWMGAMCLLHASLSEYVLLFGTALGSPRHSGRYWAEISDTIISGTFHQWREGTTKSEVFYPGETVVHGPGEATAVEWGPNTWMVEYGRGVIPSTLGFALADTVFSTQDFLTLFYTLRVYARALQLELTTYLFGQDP
Protocol: Brain membrane preparation and binding assays for the al-receptor were performed as described (DeHaven-Hudkins, D. L., L. C. Fleissner, and F. Y. Ford-Rice, 1992, Characterization of the binding of [^3H](+)pentazocine to a recognition sites in guinea pig brain, Eur. J. Pharmacol. 227, 371-378) with some modifications. Guinea pig brains were homogenized in 10 vols. (w/v) of Tris-HCl 50 mM 0.32 M sucrose, pH 7.4, with a Kinematica Polytron PT 3000 at 15000 r.p.m. for 30 s. The homogenate was centrifuged at 1000 g for 10 min at 4° C. and the supernatants collected and centrifuged again at 48000 g for 15 min at 4° C. The pellet was resuspended in 10 volumes of Tris-HCl buffer (50 mM, pH 7.4), incubated at 37° C. for 30 min, and centrifuged at 48000 g for 20 min at 4° C. Following this, the pellet was resuspended in fresh Tris-HCl buffer (50 mM, pH 7.4) and stored on ice until use.
The radioligand used was [^3H]-(+)-pentazocine at 5.0 nM and the final volume was 200 μl. The incubation was initiated with the addition of 100 μl of membrane at a final tissue concentration of approximately 5 mg tissue net weight/mL and the incubation time was 150 m. at 37° C. After incubation, the membranes were collected onto pretreated glass fiber filterplate (MultiScreen-FC, Millipore), with polyethylenimine 0.1%. The filters were washed two times with 200 μl of washing buffer (50 mM Tris Cl, pH=7.4) and then 25 μl of Ecoscint H liquid scintillation cocktail were added. Microplates were allowed to set for several hours and then quantified by liquid scintillation spectrophotometry (1450 Microbeta, Wallac). Nonspecific binding was determined with 1 μM haloperidol.

SMILES | Ki
c1ccc(CN2C[C@@H]3[C@@H](C2)NCc2c(-c4ccccc4)nnn23)cc1 (racemic) [Example 1, (rac) (5a,8a-trans)-7-benzyl-3-phenyl-5,5a,6,7,8,8a-hexahydro-4H-pyrrolo[3,4-e][1,2,3]triazolo[1,5-a]pyrazine, hydrochloride] | < 100 nM
O=C1N[C@H]2CN(Cc3ccccc3)C[C@H]2n2nnc(-c3ccccc3)c21 (racemic) [Example 2, (rac)-(5a,8a-cis)-7-benzyl-3-phenyl-5,5a,6,7,8,8a-hexahydro-4H-pyrrolo[3,4-e][1,2,3]triazolo[1,5-a]pyrazin-4-one] | > 500 nM
c1ccc(CN2C[C@@H]3NCc4c(-c5ccccc5)nnn4[C@@H]3C2)cc1 (racemic) [Example 3, (rac) (5a,8a-cis)-7-benzyl-3-phenyl-5,5a,6,7,8,8a-hexahydro-4H-pyrrolo[3,4-e][1,2,3]triazolo[1,5-a]pyrazine] | 100 to 500 nM
CC(=O)N1Cc2c(-c3ccccc3)nnn2[C@@H]2CN(Cc3ccccc3)C[C@H]21 (racemic) [Example 4, (rac) 1-((5a,8a-trans)-7-benzyl-3-phenyl-6,7,8,8a-tetrahydro-4H-pyrrolo[3,4-e][1,2,3]triazolo[1,5-a]pyrazin-5(5aH)-yl)ethanone hydrochloride] | 100 to 500 nM
CCCN1C(=O)c2c(-c3ccccc3)nnn2[C@@H]2CN(Cc3ccccc3)C[C@@H]21 (racemic) [Example 5, (rac)-(5a,8a-cis)-7-benzyl-3-phenyl-5-propyl-5,5a,6,7,8,8a-hexahydro-4H-pyrrolo[3,4-e][1,2,3]triazolo[1,5-a]pyrazin-4-one] | > 500 nM
CC(C)(C)OC(=O)N1Cc2c(-c3ccccc3)nnn2[C@@H]2CNC[C@H]21 (racemic) [Example 6, (rac)-(5a,8a-trans)-tert-butyl-3-phenyl-6,7,8,8a-tetrahydro-4H-pyrrolo[3,4-e][1,2,3]triazolo[1,5-a]pyrazine-5(5aH)-carboxylate] | > 500 nM
CC(C)(C)OC(=O)N1Cc2c(-c3ccccc3)nnn2[C@@H]2CN(Cc3ccc(F)cc3)C[C@H]21 (racemic) [Example 7, (rac)-(5a,8a-trans)-tert-butyl-7-(4-fluorobenzyl)-3-phenyl-6,7,8,8a-tetrahydro-4H-pyrrolo[3,4-e][1,2,3]triazolo[1,5-a]pyrazine-5(5aH)-carboxylate] | > 500 nM
Fc1ccc(CN2C[C@@H]3[C@@H](C2)NCc2c(-c4ccccc4)nnn23)cc1 (racemic) [Example 8, (rac) (5a,8a-trans)-7-(4-fluorobenzyl)-3-phenyl-5,5a,6,7,8,8a-hexahydro-4H-pyrrolo[3,4-e][1,2,3]triazolo[1,5-a]pyrazine hydrochloride] | < 100 nM
CCCN1Cc2c(-c3ccccc3)nnn2[C@@H]2CN(Cc3ccccc3)C[C@H]21 (racemic) [Example 9, (rac) (5a,8a-trans)-7-benzyl-3-phenyl-5-propyl-5,5a,6,7,8,8a-hexahydro-4H-pyrrolo[3,4-e][1,2,3]triazolo[1,5-a]pyrazine hydrochloride] | < 100 nM
CCCN1Cc2c(-c3ccccc3)nnn2[C@@H]2CNC[C@H]21 (racemic) [Example 10, (rac) (5a,8a-trans)-3-phenyl-5-propyl-5,5a,6,7,8,8a-hexahydro-4H-pyrrolo[3,4-e][1,2,3]triazolo[1,5-a]pyrazine hydrochloride] | > 500 nM
CCCCCN1C[C@@H]2[C@@H](C1)n1nnc(-c3ccccc3)c1CN2CCC (racemic) [Example 11, (rac) (5a,8a-trans)-7-pentyl-3-phenyl-5-propyl-5,5a,6,7,8,8a-hexahydro-4H-pyrrolo[3,4-e][1,2,3]triazolo[1,5-a]pyrazine hydrochloride] | < 100 nM
CN1Cc2c(-c3ccccc3)nnn2[C@@H]2CN(Cc3ccccc3)C[C@@H]21 (racemic) [Example 12, (rac) (5a,8a-cis)-7-benzyl-5-methyl-3-phenyl-5,5a,6,7,8,8a-hexahydro-4H-pyrrolo[3,4-e][1,2,3]triazolo[1,5-a]pyrazine] | < 100 nM
CCCN1Cc2c(-c3ccccc3)nnn2[C@@H]2CN(Cc3ccccc3)C[C@@H]21 (racemic) [Example 13, (rac) (5a,8a-cis)-7-benzyl-3-phenyl-5-propyl-5,5a,6,7,8,8a-hexahydro-4H-pyrrolo[3,4-e][1,2,3]triazolo[1,5-a]pyrazine] | 100 to 500 nM
CCCCCN1C[C@@H]2NCc3c(-c4ccccc4)nnn3[C@@H]2C1 (racemic) [Example 14, (rac) (5a,8a-cis)-7-pentyl-3-phenyl-5,5a,6,7,8,8a-hexahydro-4H-pyrrolo[3,4-e][1,2,3]triazolo[1,5-a]pyrazine] | < 100 nM
CN1Cc2c(-c3ccccc3)nnn2[C@@H]2CN(Cc3ccccc3)C[C@H]21 (racemic) [Example 16, (rac) (5a,8a-trans)-7-benzyl-5-methyl-3-phenyl-5,5a,6,7,8,8a-hexahydro-4H-pyrrolo[3,4-e][1,2,3]triazolo[1,5-a]pyrazine hydrochloride] | < 100 nM
CCC(=O)N1Cc2c(-c3ccccc3)nnn2[C@@H]2CN(Cc3ccccc3)C[C@H]21 (racemic) [Example 17, (rac) 1-((5a,8a-trans)-7-benzyl-3-phenyl-6,7,8,8a-tetrahydro-4H-pyrrolo[3,4-e][1,2,3]triazolo[1,5-a]pyrazin-5(5aH)-yl)propan-1-one hydrochloride] | 100 to 500 nM
c1ccc(-c2nnn3c2CN[C@@H]2CN(CC4CC4)C[C@H]23)cc1 (racemic) [Example 18, (rac) (5a,8a-trans)-7-(cyclopropyl-methyl)-3-phenyl-5,5a,6,7,8,8a-hexahydro-4H-pyrrolo[3,4-e][1,2,3]triazolo[1,5-a]pyrazine hydrochloride] | 100 to 500 nM
c1ccc(-c2nnn3c2CN[C@@H]2CN(C4CCOCC4)C[C@H]23)cc1 (racemic) [Example 19, (rac) (5a,8a-trans)-3-phenyl-7-(tetrahydro-2H-pyran-4-yl)-5,5a,6,7,8,8a-hexahydro-4H-pyrrolo[3,4-e][1,2,3]triazolo[1,5-a]pyrazine hydrochloride] | > 500 nM
CS(=O)(=O)N1Cc2c(-c3ccccc3)nnn2[C@@H]2CN(Cc3ccccc3)C[C@H]21 (racemic) [Example 20, (rac) (5a,8a-trans)-7-benzyl-5-(methylsulfonyl)-3-phenyl-5,5a,6,7,8,8a-hexahydro-4H-pyrrolo[3,4-e][1,2,3]triazolo[1,5-a]pyrazine hydrochloride] | 100 to 500 nM
Fc1ccccc1-c1nnn2c1CN[C@@H]1CN(Cc3ccccc3)C[C@H]12 (racemic) [Example 28, (rac) (5a,8a-trans)-7-benzyl-3-(2-fluorophenyl)-5,5a,6,7,8,8a-hexahydro-4H-pyrrolo[3,4-e][1,2,3]triazolo[1,5-a]pyrazine hydrochloride] | < 100 nM
c1ccc(CN2C[C@@H]3NCCc4c(-c5ccccc5)nnn4[C@@H]3C2)cc1 (racemic) [Example 30, (rac) (6a,9a-cis)-8-benzyl-3-phenyl-4,5,6,6a,7,8,9,9a-octahydropyrrolo[3,4-b][1,2,3]triazolo[1,5-d][1,4]diazepine hydrochloride] | < 100 nM
CCCN1CCc2c(-c3ccccc3)nnn2[C@@H]2CN(Cc3ccccc3)C[C@@H]21 (racemic) [Example 31, (rac) (6a,9a-cis)-8-benzyl-3-phenyl-6-propyl-4,5,6,6a,7,8,9,9a-octahydropyrrolo[3,4-b][1,2,3]triazolo[1,5-d][1,4]diazepine hydrochloride] | < 100 nM
